Drawing on paper PMC8730602 (2022), this text covers binding and Kd for four molecules.

Test [1] relates to thiolated cortisol aptamer (DNA, aptamer) CGACCGGTCTGGGGACCCTGTCTGGGTGTGTGGGTAGTAGGTCG
Briefly: aptamer field-effect transistor. The conditions noted are these: artificial sweat (Table S5), immobilised aptamer; for binding: negligible response at physiological concentrations versus 10 nM cortisol.

Test [2] has as its system thiolated serotonin aptamer (DNA, aptamer) CGACTGGTAGGCAGATAGGGGAAGCTGATTCGATGCGTGGGTCG
Briefly: aptamer field-effect transistor. The note with it: artificial sweat (Table S5); immobilised aptamer; response over 10 fM to 100 µM.

The test system of test [3] is cortisol aptamer, fluorescein at 5' end (DNA, aptamer) CTCTCGGGACGACCGGTCTGGGGACCCTGTCTGGGTGTGTGGGTAGTAGGTCGTCCC
Briefly: competitive structure-switching fluorescence (FAM/dabcyl). The note with it: 154 mM NaCl, 1.058 mM KH2PO4, 2 mM MgCl2; PBS pH 7.3-7.5; dabcyl quencher strand GGTCGTCCCGAGAG displaced, aptamer:quencher 1:5.

The structures appear in SMILES notation.

As for `NCCc1c[nH]c2ccc(O)cc12`, the binding result is listed as “no” in test [1] and “yes” in test [2]. Take `C[C@]12CC[C@H]3[C@@H](CCC4=CC(=O)CC[C@@]43C)[C@@H]1CC[C@@H]2O`: the binding result in test [1] was “no”.

Take `C[C@]12CCC(=O)C=C1CC[C@@H]1[C@@H]2[C@@H](O)C[C@@]2(C)[C@H]1CC[C@]2(O)C(=O)CO`: the Kd in test [1] (on-FET, gate-voltage sweep, apparent) is listed as ~ 30 pM; in test [3], 500 nM. As to `CC(=O)[C@H]1CC[C@H]2[C@@H]3CCC4=CC(=O)CC[C@]4(C)[C@H]3CC[C@]12C`, the binding result in test [1] is reported as “no”.
